Common to all, as to assay type: cell-based
Series [1] deals with HIV-2 ROD. In words: anti-HIV activity in MT-4 cells (MTT), HIV-2 ROD. The procedure: (§1) T MT-4 lymphocyte cell line which had been transformed into a continuous cell line by an HTLV infection, a virus associated with one form of leukemia, was used to test the antiviral activity (anti-HIV) of AZT- and d4T-conjugated compounds according to the invention, respectively. A characteristic feature of such cells is lack of survival following an HIV infection. The test is based on protection provided by the product (like AZT) against this viral destructive effect. Products were tested in serially diluted solutions in a 96-well plate. In the upper portion of the microplate, products were tested by incubation at various concentrations with cells and virus (in triplicate), so as to determine the concentration of product which affords cell protection against the viral destructive effect. IC50 of the product is taken as the concentration where a 50% loss of viable cell count is recorded. Viable cell count was done with MTT, a yellow tetrazolium compound which undergoes enzymatic reduction (at the mitochondrial level in viable cells) into a purple colored formazan compound. Wells containing viable cells are purple in colour, whereas dead cells give a persistent yellow color. Measurement of optical density (O.D.) allows this effect to be quantified.

The subject of series [2] is MT-4 cells. The series is described as follows: cytotoxicity on virus-free MT-4 cells (MTT). The procedure: Cytotoxicity of a given product is assessed in the same manner in the lower portion of the plate where the test is conducted by incubating serially diluted products over virus-free cells, to thereby determine the toxic effect of products on cells. The result is given as CC50, i.e. the concentration at which 50% of cells are dead due to product toxicity. Selectivity (selectivity index, SI) of a given product is defined as a CC50/IC50 ratio. This parameter is of great importance since the selectivity index of a fairly efficient product is high.

Series [3] deals with HIV-1 IIIB. In words: anti-HIV activity in MT-4 cells (MTT), HIV-1 IIIB. The procedure: as §1

As a reminder, the IC50 is the concentration that inhibits the measured activity by half. A word on the CC50: it is the concentration giving 50% cytotoxicity.

Turning to `Cc1cn([C@H]2C[C@H](N=[N+]=[N-])[C@@H](CO)O2)c(=O)[nH]c1=O` [AZT, reference compound], the values for the IC50 in series [1] and in series [3] were 1.8 nM and 2.9 nM, respectively. In series [2], this compound yielded a CC50 of 187000 nM.

In the case of `Cc1cn([C@H]2C=C[C@@H](CO)O2)c(=O)[nH]c1=O` [Example D4T, reference compound], the values for the IC50 in series [1] and in series [3] were 220 nM and 107 nM, respectively. In series [2], this compound had a CC50 of 321000 nM.
